{
  "source": "the supplement of paper PMC10307832",
  "experiment_in_all_cases": "relative viability (nuclei count vs DMSO), 5 days (fraction); higher = more cells survive",
  "key": {"[1]": {"compound": "Cn1cc(-c2cnc3ccc4ccc(CS(=O)(=O)NCc5ccccn5)cc4c(=O)c3c2)cn1 [MK-8033] + Cc1cc(Nc2cc(N3CCN(C)CC3)nc(Sc3ccc(NC(=O)C4CC4)cc3)n2)n[nH]1 [Tozasertib] (partner 0.1 µM)", "in_short": "(§1)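 Nuclei were stained with Hoechst during a one-step fixation (final 0.05% Triton X-100, 1% formaldehyde, 1 ug/ml Hoechst) carried out 5 days after dosing, then counted on 4× images. The cells, lung cancer lines in 1536-well plates, had been dosed by pin tool the day after seeding with one drug alone or a fixed anchor-drug dose plus five library-drug doses (not always all listed) in √10 steps. Relative viability is the nuclei count in treated wells divided by that in vehicle wells, and each value is the median of duplicate plates.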"}, "[2]": {"compound": "CCc1c2c(nc3ccc(OC(=O)N4CCC(N5CCCCC5)CC4)cc13)-c1cc3c(c(=O)n1C2)COC(=O)[C@]3(O)CC [Irinotecan] + Cc1nc(NC(=O)N2CCC[C@H]2C(N)=O)sc1-c1ccnc(C(C)(C)C(F)(F)F)c1 [Alpelisib] (partner 2 µM)", "in_short": "as §1"}, "[3]": {"compound": "CCc1c2c(nc3ccc(OC(=O)N4CCC(N5CCCCC5)CC4)cc13)-c1cc3c(c(=O)n1C2)COC(=O)[C@]3(O)CC [Irinotecan] + CC(=O)Nc1cccc(-n2c(=O)n(C3CC3)c(=O)c3c(Nc4ccc(I)cc4F)n(C)c(=O)c(C)c32)c1 [Trametinib] (partner 0.02 µM)", "in_short": "as §1"}, "[4]": {"compound": "CCc1c2c(nc3ccc(OC(=O)N4CCC(N5CCCCC5)CC4)cc13)-c1cc3c(c(=O)n1C2)COC(=O)[C@]3(O)CC [Irinotecan] + CC(=O)c1c(C)c2cnc(Nc3ccc(N4CCNCC4)cn3)nc2n(C2CCCC2)c1=O [Palbociclib] (partner 0.5 µM)", "in_short": "as §1"}, "[5]": {"compound": "CCc1c2c(nc3ccc(OC(=O)N4CCC(N5CCCCC5)CC4)cc13)-c1cc3c(c(=O)n1C2)COC(=O)[C@]3(O)CC [Irinotecan] + C[C@]1(O)C[C@@H](c2nc(-c3ccc4ccc(-c5ccccc5)nc4c3)c3c(N)nccn32)C1 [Linsitinib] (partner 1 µM)", "in_short": "as §1"}},
  "data": [
    {"cell line": "UMC-11", "values": [
      {"measurement": "relative viability", "setting": "[1]; first compound 0.02 µM", "result": 0.201},
      {"measurement": "relative viability", "setting": "[1]; first compound 0.2 µM", "result": 0.193},
      {"measurement": "relative viability", "setting": "[1]; first compound 0.6325 µM", "result": 0.205},
      {"measurement": "relative viability", "setting": "[1]; first compound 2 µM", "result": 0.205},
      {"measurement": "relative viability", "setting": "[2]; first compound 0.6325 µM", "result": 0.572},
      {"measurement": "relative viability", "setting": "[2]; first compound 2 µM", "result": 0.401},
      {"measurement": "relative viability", "setting": "[2]; first compound 6.325 µM", "result": 0.214},
      {"measurement": "relative viability", "setting": "[2]; first compound 20 µM", "result": 0.229},
      {"measurement": "relative viability", "setting": "[3]; first compound 0.6325 µM", "result": 0.32},
      {"measurement": "relative viability", "setting": "[3]; first compound 2 µM", "result": 0.539},
      {"measurement": "relative viability", "setting": "[3]; first compound 6.325 µM", "result": 0.29},
      {"measurement": "relative viability", "setting": "[3]; first compound 20 µM", "result": 0.216},
      {"measurement": "relative viability", "setting": "[4]; first compound 0.6325 µM", "result": 0.343},
      {"measurement": "relative viability", "setting": "[4]; first compound 2 µM", "result": 0.336},
      {"measurement": "relative viability", "setting": "[4]; first compound 6.325 µM", "result": 0.267},
      {"measurement": "relative viability", "setting": "[4]; first compound 20 µM", "result": 0.186},
      {"measurement": "relative viability", "setting": "[5]; first compound 0.6325 µM", "result": 0.724},
      {"measurement": "relative viability", "setting": "[5]; first compound 2 µM", "result": 0.49},
      {"measurement": "relative viability", "setting": "[5]; first compound 6.325 µM", "result": 0.281},
      {"measurement": "relative viability", "setting": "[5]; first compound 20 µM", "result": 0.22}
    ]}
  ]
}
